Reference: patent publication US12295396B2, “Antagonists of T2R54 and compositions and uses thereof” (Firmenich Incorporated, priority 2018, dated 2025)

These molecules were tested against T1, hT2R54 (Homo sapiens, UniProt P59534) (assay: Cell-based assay for measuring hT2R54 inhibition (FLIPR calcium, Fluo4AM, acetaminophen as bitter agonist)). Conditions: Table 2; cells stably expressing hT2R54 and a promiscuous G protein; read-out: hT2R54 IC50.
T1 construct: expressed in transfected cells; it overexpresses a promiscuous G protein
T1 sequence (P59534 1-338): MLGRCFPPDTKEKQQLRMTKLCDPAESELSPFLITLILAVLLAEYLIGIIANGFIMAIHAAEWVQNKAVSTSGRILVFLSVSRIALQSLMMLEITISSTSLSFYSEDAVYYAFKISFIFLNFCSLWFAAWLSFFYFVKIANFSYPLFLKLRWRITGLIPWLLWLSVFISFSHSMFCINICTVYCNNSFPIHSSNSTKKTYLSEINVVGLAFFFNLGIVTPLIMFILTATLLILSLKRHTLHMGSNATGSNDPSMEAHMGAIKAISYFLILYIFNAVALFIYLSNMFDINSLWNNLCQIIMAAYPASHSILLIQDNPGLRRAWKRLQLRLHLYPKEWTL
In short: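 The readout was FLIPR calcium (Fluo4AM, 10 s baseline, 3 min post-addition) in cells stably carrying hT2R54 plus a promiscuous G protein, with host cells lacking hT2R54 as counter-control. Acetaminophen concentration series were tested with and without set test-compound levels. Half-maximal block of the agonist response gave the EC50/IC50.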
Work on `COCc1ccc(C(=O)N2CCN(CC(=O)Nc3cc4c(cc3C(=O)OC)OCO4)CC2)o1` [compound 347] yielded an IC50 of 83 nM. `COC(=O)c1cc2c(cc1NC(=O)CN1CCN(C(C)=O)CC1)OCO2` [compound 348] gave an IC50 of 166 nM. `CCCC(=O)N1CCN(CC(=O)Nc2cc3c(cc2C(=O)OC)OCO3)CC1` [compound 349] showed an IC50 of 244 nM. Molecule `COC(=O)c1cc2c(cc1NC(=O)CN1CCN(C(=O)C3CCCO3)CC1)OCO2` (stereo not drawn) [compound 350] has an IC50 of 299 nM. `COC(=O)c1cc2c(cc1NC(=O)CN1CCN(C(=O)CC3CCCO3)CC1)OCO2` (stereo not drawn) [compound 351] gave an IC50 of 439 nM. Molecule `COC(=O)c1cc2c(cc1NC(=O)CN1CCN(C(=O)CN3CCOCC3)CC1)OCO2` [compound 352] has an IC50 of 740 nM. `COC(=O)c1cc2c(cc1NC(=O)CN1CCN(C(C)=O)CC1)CCCC2` [compound 353] gave an IC50 of 2100 nM. In the case of `COc1cc2c(cc1NC(=O)CN1CCN(C(=O)C3CCCO3)CC1)CCC2` (stereo not drawn) [compound 354], the IC50 is reported as 1900 nM. In the case of `COc1cc2c(cc1NC(=O)CN1CCN(C(C)=O)CC1)CCC2` [compound 355], the IC50 is reported as 2500 nM. Molecule `COCc1cccc(C(=O)N2CCN(CC(=O)Nc3cc4c(cc3OC)OCO4)CC2)c1` [compound 356] has an IC50 of 156 nM. `COCc1ccc(C(=O)N2CCN(CC(=O)Nc3cc4c(cc3OC)OCO4)CC2)s1` [compound 357] was tested, and the IC50 was 208 nM. Molecule `COCc1ccc(C(=O)N2CCN(CC(=O)Nc3cc4c(cc3OC)OCO4)CC2)cc1` [compound 358] has an IC50 of 148 nM. `COCc1nc(C(=O)N2CCN(CC(=O)Nc3cc4c(cc3OC)OCO4)CC2)cs1` [compound 359] gave an IC50 of 261 nM. In the case of `COc1cc2c(cc1NC(=O)CN1CCN(C(=O)c3cn(C)nn3)CC1)OCO2` [compound 360], the IC50 is reported as 735 nM. Molecule `COCc1nc(C(=O)N2CCN(CC(=O)Nc3cc4c(cc3OC)OCO4)CC2)co1` [compound 361] has an IC50 of 546 nM. Work on `COc1cc2c(cc1NC(=O)CN1CCN(C(=O)c3ncoc3C)CC1)OCO2` [compound 362] yielded an IC50 of 567 nM. Molecule `COc1cc2c(cc1NC(=O)CN1CCN(C(=O)c3cn(C)nc3C)CC1)OCO2` [compound 363] has an IC50 of 600 nM. Molecule `COc1cc2c(cc1NC(=O)CN1CCN(C(C)=O)CC1)OCO2` [compound 364] has an IC50 of 1560 nM. Work on `COc1cc2c(cc1NC(=O)CN1CCN(C(=O)CN3CCOCC3)CC1)OCO2` [compound 365] yielded an IC50 of 2640 nM. In the case of `COc1cc2c(cc1NC(=O)CN1CCN(C(=O)c3cccc(F)c3)CC1)OCO2` [compound 367], the IC50 is reported as 600 nM. Work on `COc1ccc(C(=O)N2CCN(CC(=O)Nc3cc4c(cc3OC)OCO4)CC2)cc1` [compound 368] yielded an IC50 of 600 nM. In the case of `COc1cccc(C(=O)N2CCN(CC(=O)Nc3cc4c(cc3OC)OCO4)CC2)c1` [compound 369], the IC50 is reported as 300 nM. Work on `COc1cc2c(cc1NC(=O)CN1CCN(C(=O)Cc3ccccc3)CC1)OCO2` [compound 370] yielded an IC50 of 400 nM. In the case of `COc1cc2c(cc1NC(=O)CN1CCN(C(=O)Cc3ccc(F)cc3)CC1)OCO2` [compound 371], the IC50 is reported as 900 nM. `COc1cc2c(cc1NC(=O)CN1CCN(C(=O)Cc3cccc(O)c3)CC1)OCO2` [compound 372] showed an IC50 of 400 nM. For `COc1cc2c(cc1NC(=O)CN1CCN(C(=O)Cc3ccc(O)cc3)CC1)OCO2` [compound 373], the IC50 was 700 nM. With `COc1cccc(CC(=O)N2CCN(CC(=O)Nc3cc4c(cc3OC)OCO4)CC2)c1` [compound 374] the IC50 was 300 nM. In the case of `COc1ccc(CC(=O)N2CCN(CC(=O)Nc3cc4c(cc3OC)OCO4)CC2)cc1` [compound 375], the IC50 is reported as 1000 nM. `COc1cc2c(cc1NC(=O)CN1CCN(C(=O)Cc3ccccc3F)CC1)OCO2` [compound 376] was tested, and the IC50 was 200 nM. Work on `COc1cc2c(cc1NC(=O)CN1CCN(C(=O)Cc3cccc(F)c3)CC1)OCO2` [compound 377] yielded an IC50 of 200 nM. With `COc1cc2c(cc1NC(=O)CN1CCN(C(=O)Cc3ccncc3)CC1)OCO2` [compound 378] the IC50 was 1100 nM. `COc1cc2c(cc1NC(=O)CN1CCN(C(=O)c3ccccc3)CC1)OCO2` [compound 379] was tested, and the IC50 was 400 nM. `COc1cc2c(cc1NC(=O)CN1CCN(C(=O)c3ccc(O)cc3)CC1)OCO2` [compound 380] gave an IC50 of 800 nM. In the case of `COc1cc2c(cc1NC(=O)CN1CCN(C(=O)c3ccc(O)c(O)c3)CC1)OCO2` [compound 381], the IC50 is reported as 5000 nM. `COc1cc2c(cc1NC(=O)CN1CCN(C(=O)c3cccc(C#N)c3)CC1)OCO2` [compound 382] was tested, and the IC50 was 400 nM. `COc1cc2c(cc1NC(=O)CN1CCN(C(=O)c3cccc(CO)c3)CC1)OCO2` [compound 383] showed an IC50 of 600 nM. With `COc1cc2c(cc1NC(=O)CN1CCN(C(=O)c3cc(C)oc3C)CC1)OCO2` [compound 384] the IC50 was 200 nM. With `COc1cc2c(cc1NC(=O)CN1CCN(C(=O)c3cc[nH]n3)CC1)OCO2` [compound 385] the IC50 was 700 nM. `COc1cc2c(cc1NC(=O)CN1CCN(C(=O)c3ccoc3)CC1)OCO2` [compound 386] gave an IC50 of 200 nM. `COc1cc2c(cc1NC(=O)CN1CCN(C(=O)c3cnon3)CC1)OCO2` [compound 387] showed an IC50 of over 10000 nM. Molecule `COc1cc2c(cc1NC(=O)CN1CCN(C(=O)c3ncn[nH]3)CC1)OCO2` [compound 388] has an IC50 of 2600 nM. Work on `COc1cc2c(cc1NC(=O)CN1CCN(C(=O)c3cc(C)on3)CC1)OCO2` [compound 389] yielded an IC50 of 400 nM. `COc1cc2c(cc1NC(=O)CN1CCN(C(=O)c3n[nH]cc3C)CC1)OCO2` [compound 390] showed an IC50 of 2700 nM. `COc1cc2c(cc1NC(=O)CN1CCN(C(=O)c3nc(C)c[nH]3)CC1)OCO2` [compound 391] gave an IC50 of 200 nM. `COc1cc2c(cc1NC(=O)CN1CCN(C(=O)c3c[nH]c(C)n3)CC1)OCO2` [compound 392] was tested, and the IC50 was 1300 nM. Molecule `COc1cc2c(cc1NC(=O)CN1CCN(C(=O)c3ncc[nH]3)CC1)OCO2` [compound 393] has an IC50 of 200 nM. `COc1cc2c(cc1NC(=O)CN1CCN(C(=O)c3cc(C)c(C)o3)CC1)OCO2` [compound 395] gave an IC50 of 100 nM. `COCc1ccc(C(=O)N2CCN(CC(=O)Nc3cc4c(cc3OC)OCO4)CC2)o1` [compound 396] was tested, and the IC50 was 100 nM. In the case of `COCc1cc(C(=O)N2CCN(CC(=O)Nc3cc4c(cc3OC)OCO4)CC2)no1` [compound 397], the IC50 is reported as 770 nM. In the case of `COc1cc2c(cc1NC(=O)CN1CCN(C(=O)c3ccc(CO)o3)CC1)OCO2` [compound 398], the IC50 is reported as 630 nM. Work on `COc1cc2c(cc1NC(=O)CN1CCN(C(=O)c3ncn[nH]3)CC1)OCO2` [compound 399] yielded an IC50 of 1400 nM. In the case of `COCc1cc(C(=O)N2CCN(CC(=O)Nc3cc4c(cc3OC)OCO4)CC2)no1` [compound 400], the IC50 is reported as 300 nM. `COc1cc2c(cc1NC(=O)CN1CCN(C(=O)Cc3ccoc3)CC1)OCO2` [compound 401] gave an IC50 of 130 nM. Work on `COc1cc2c(cc1NC(=O)CN1CCN(C(=O)[C@H]3CCC(=O)O3)CC1)OCO2` [compound 402] yielded an IC50 of 1100 nM. `COc1cc2c(cc1NC(=O)C(C)N1CCN(C(C)=O)CC1)OCO2` (stereo not drawn) [compound 403] gave an IC50 of 1400 nM. For `COc1cc2c(cc1NC(=O)CN1CCN(C(=O)C3CCCC3)CC1)OCO2` [compound 404], the IC50 was 300 nM. Work on `COc1cc2c(cc1NC(=O)CN1CCN(C(=O)C3CCCCC3C)CC1)OCO2` (stereo not drawn) [compound 405] yielded an IC50 of 1000 nM. `COc1cc2c(cc1NC(=O)CN1CCN(C(=O)C3CCOC3)CC1)OCO2` (stereo not drawn) [compound 406] gave an IC50 of 1800 nM. Work on `COc1cc2c(cc1NC(=O)CN1CCN(C(=O)C3CCN(C)C3)CC1)OCO2` (stereo not drawn) [compound 407] yielded an IC50 of over 10000 nM. With `COc1cc2c(cc1NC(=O)CN1CCN(C(=O)CC3CCCO3)CC1)OCO2` (stereo not drawn) [compound 408] the IC50 was 880 nM. Molecule `COc1cc2c(cc1NC(=O)CN1CCN(C(=O)CC3CCCCO3)CC1)OCO2` (stereo not drawn) [compound 409] has an IC50 of 500 nM. For `COc1cc2c(cc1NC(=O)CN1CCN(C(C)=O)CC1)CCC2` [compound 410], the IC50 was 1140 nM. Molecule `CC(=O)c1cc2c(cc1NC(=O)C(C)N1CCN(C(=O)[C@@H]3CCCO3)CC1)OCCO2` (stereo partly drawn) [compound 411] has an IC50 of 170 nM. For `CC(=O)c1cc2c(cc1NC(=O)C(C)N1CCN(C(=O)[C@H]3CCCO3)CC1)OCCO2` (stereo partly drawn) [compound 412], the IC50 was 170 nM. `COCc1ccc(C(=O)N2CCN(C(C)C(=O)Nc3cc4c(cc3C(C)=O)OCCO4)CC2)cc1` (stereo not drawn) [compound 413] was tested, and the IC50 was 190 nM. Molecule `CCc1cc2c(cc1NC(=O)CN1CCN(C(=O)C3CCCO3)CC1)OCO2` (stereo not drawn) [compound 414] has an IC50 of 7600 nM.

Same assay, conditions: Table 3; cells stably expressing hT2R54 and a promiscuous G protein; read-out: hT2R54 IC50
With `CC(=O)c1cc2c(cc1NC(=O)CN1CCN(CC3CCCO3)CC1)OCO2` (stereo not drawn) [compound 415] the IC50 was 1300 nM. `COc1cc2c(cc1NC(=O)CN1CCN(CC3CCCO3)CC1)OCO2` (stereo not drawn) [compound 416] was tested, and the IC50 was 4000 nM.

Same assay, conditions: Table 4; cells stably expressing hT2R54 and a promiscuous G protein; read-out: hT2R54 IC50
`CC(=O)c1cc2c(cc1NC(=O)CN1CCCCC1)OCO2` [compound 417] was tested, and the IC50 was 439 nM. `CC(=O)c1cc2c(cc1NC(=O)CN1CCC(C)CC1)OCO2` [compound 418] was tested, and the IC50 was 183 nM. `CCOC(=O)[C@H]1CCCCN1CC(=O)Nc1cc2c(cc1C(C)=O)OCO2` [compound 419] gave an IC50 of 135 nM. With `CCOC(=O)[C@H]1CCCN1CC(=O)Nc1cc2c(cc1C(C)=O)OCO2` [compound 420] the IC50 was 100 nM. Work on `CC(=O)c1cc2c(cc1NC(=O)CN1CCC(=O)CC1)OCO2` [compound 421] yielded an IC50 of 187 nM. Molecule `CC(=O)c1cc2c(cc1NC(=O)CN1CCSCC1)OCO2` [compound 422] has an IC50 of 50 nM. Work on `CC(=O)c1cc2c(cc1NC(=O)CN1CCOc3ccccc31)OCO2` [compound 423] yielded an IC50 of 1000 nM. `CC(=O)c1cc2c(cc1NC(=O)CN1CCC(O)C1)OCO2` (stereo not drawn) [compound 424] gave an IC50 of 1590 nM. Work on `COCCCN(C)CC(=O)Nc1cc2c(cc1C(C)=O)OCO2` [compound 425] yielded an IC50 of 643 nM. `COCCN(C)CC(=O)Nc1cc2c(cc1C(C)=O)OCO2` [compound 426] showed an IC50 of 1150 nM.
